# Data published in US20030068275A1, “Coordination complexes for detecting analytes, and methods of making and using the same” (priority 2001, published 2003).
# Assay: Detection of nitric oxide with the [Co2(O2CAr^Tol)4(dansylpiperazine)2] fluorescent sensor
# Details: for peak emission intensity wavelength: CH2Cl2, excited at 350 nm
# Procedure: Detection of Nitric Oxide with the [Co2(O2CAr^Tol)4(dansylpiperazine)2Fluorescent Sensor. It is believed that in solution [Co2(O2CAr^Tol)4(dansylpiperazine)2] is in equilibrium between two species: the [Co2(μ-O2CAr^Tol)4(dansylpiperazine)2] (paddle-wheel) isomer and the [Co2(μ-O2CAr^Tol)2(O2CAr^Tol)2(dansylpiperazine)2] (windmill) isomer. […] The ability of the [Co2(O2CAr^Tol)4(dansylpiperazine)2] system to act as a nitric oxide sensor was tested. […] The exact reaction that occurs in this experiment has not yet been determined.
# The fluorescence response of [Co2(O2CAr^Tol)4(dansylpiperazine)2] after exposure to excess NO in CH2Cl2 was measured spectroscopically. Solutions were excited at 350 nm and the emission spectrum recorded. The peak emission intensity is at 503 nm before exposure NO, but shifts to 513 nm after exposure to NO. Emission spectra, shown in FIG. 5, were recorded at 0, 1, 5, 10, 20, 30, 40, 50, and 60 minutes post exposure to NO. A fluorescence increase of 9.6-fold was observed after 60 minutes.
substance,measurement,setting,value
[Co2(μ-O2CAr^Tol)4(dansylpiperazine)2] [[Co2(O2CAr^Tol)4(dansylpiperazine)2]],fluorescence increase,"CH2Cl2, excess NO, excited at 350 nm, after 60 minutes",9.6 fold
same,peak emission intensity wavelength,after exposure to excess NO,513 nm
same,peak emission intensity wavelength,before exposure to NO,503 nm
same,fluorescence in the absence of nitric oxide,"solution in dichloromethane, before NO (FIG. 4b, left)",little to no fluorescence
same,fluorescence change after exposure to nitric oxide,"solution in dichloromethane, excess NO (FIG. 4b, right)",increase in fluorescence
